Columns and labels:
Type in all cases: cell-based
[1] = test system: Wnt activity (Sp5-Luc reporter, SW480 colon carcinoma cells); experiment: Screening assay for Wnt activity: Sp5-Luc reporter gene assay in SW480 colon carcinoma cells; conditions: Homo sapiens; for EC50: Sp5-Luc reporter, SW480 cells, overnight incubation; for inhibition at 10 µM: SW480, read-out: percent inhibition at 10 μM
Text: The screening assay for Wnt activity is described as follows. Reporter cell lines can be generated by stably transducing cancer cell lines (e.g., colon cancer) or primary cells (e.g., IEC-6 intestinal cells) with a lentiviral construct that includes a Wnt-responsive promoter driving expression of the firefly luciferase gene.
SW480 colon carcinoma cells were transduced with a lentiviral vector expressing luciferase with a human Sp5 promoter consisting of a sequence of eight TCF/LEF binding sites. SW480 cells stably expressing the Sp5-Luc reporter gene and a hygromycin resistance gene were selected by treatment with 150 μg/mL of hygromycin for 7 days. These stably transduced SW480 cells were expanded in cell culture and used for all further screening activities. […] For Sp5-Luc reporter gene assays, the cells were plated at 4,000 cells/well in 384-well plates with medium containing 1% fetal bovine serum and incubated overnight at 37° C. and 5% CO2. Following incubation, 20 μl of BrightGlo luminescence reagent (Promega) was added to each well of the 384-well assay plates. The plates were placed on an orbital shaker for 2 min and then luminescence was quantified using the Envision (Perkin Elmer) plate reader. Readings were normalized to DMSO only treated cells, and normalized activities were utilized for EC50 calculations using the dose-response log (inhibitor) vs. response-variable slope (four parameters) nonlinear regression feature available in GraphPad Prism 5.0 (or Dotmatics).

[2] = test system: primary human mesenchymal stem cells (hMSCs); experiment: Induction of chondrogenesis in hMSCs (chondrogenic nodules, Rhodamine B/Nile Red); conditions: 6 days; for EC50: concentration required to induce 50% levels of chondrogenesis vs TGF-β3, read-out: Conc (nM) of 50% TGF-β3 activity; for Emax: relative to TGF-β3 (10 ng/mL) positive control, read-out: Max. Activity as % TGF-β3 activity
Text: Representative compounds were screened using primary human mesenchymal stem cells (hMSCs) to determine their ability to induce chondrogenesis (process by which cartilage is developed).
Human Mesenchymal Stem Cell Culture: Primary human mesenchymal stem cells (hMSCs) were purchased from Lonza (Walkersville, Md.) and expanded in Mesenchymal Stem Cell Growth Media (Lonza). Cells between passage 3 and 6 were used for the experiments.
Number of nodules in each well was normalized to the average of 3 DMSO treated wells on the same plate using Excel (Microsoft Inc.). The normalized averages (fold change over DMSO) of 3 replicate wells for each compound concentration were calculated. Due to solubility limitations of some of the compounds, curve fitting was incomplete leading to inaccurate EC50 determinations.
Using TGF-β3 as a positive control, the concentration of representative compounds required to induce 50% levels of chondrogenesis is reported. In addition, the maximum activity of each compound and the respective dose that each compound reached maximum chondrogenesis activity is reported.

IL-6 (THP-1 cells) = experiment: IL-6 inhibition in LPS-stimulated THP-1 monocytes (HTRF); conditions: Homo sapiens; for EC50: IL-6, THP-1 cells, LPS 500 ng/mL, 22 hours; for inhibition at 10 µM: THP-1, read-out: percent inhibition at 10 μM
Experimental: Compound Screening: THP-1 cells were cultured in basal media with 1% FBS for 24 hours before the start of the assay. […] THP-1 cells were plated at 5000 cells/well in the 384-well plates and incubated at 37° C. for 2 h. 500 ng/mL of LPS was added after 2 hours and cells were incubated for another 22 hours at 37° C. Plates were spun in a centrifuge for 1 minute at […] and a mixture of anti-IL6 XL665, and anti-IL6 Cryptate diluted in reconstitution buffer (Cisbio Inc.) was added to each well. Following incubation for 3 hrs at room temperature, Homogeneous Time-Resolved Fluorescence (HTRF) was measured using the Envision (Perkin Elmer) at 665 nm and […]. The ratio of fluorescence at 665 nm to 620 nm was used as a readout for IL6 quantification. All samples were processed in duplicate. Readings were normalized to DMSO treated cells and normalized activities were utilized for EC50 calculations using the dose-response log (inhibitor) vs. response-variable slope (four parameters) nonlinear regression feature available in GraphPad Prism 5.0 (or Dotmatics).

SW480 colon cancer cells = experiment: Cell viability assay (CellTiter-Blue) in SW480 colon cancer cells; conditions: Homo sapiens; for EC50: 96 h, SW480 cell viability, four days; for inhibition at 10 µM: SW480, read-out: percent inhibition at 10 μM
Experimental: Representative compounds were screened using the following assay procedure to assess the effect on cell viability as described below.
Approximately 2×10^3 SW480 colon cancer cells were seeded into each well and allowed to incubate in the presence or absence of compound for four days at 37° C./5% CO2. Eight replicates of DMSO-treated cells served as controls and cells treated with compound were performed in duplicate.
After incubation, 20 μL of CellTiter-Blue (Promega) was added to each well allowed to incubate for approximately 3 hours. This reagent was a buffered solution which contains resazurin, metabolically active cells were able to reduce rezarurin (blue) into resorufin (pink) which was highly fluorescent. This measured fluorescence was used as a readout for cell viability.

[3] = test system: primary human fibroblasts derived from IPF patients (LL29 cells) treated with TGF-β1; experiment: Inhibition of the fibrotic process: αSMA staining in TGF-β1 treated LL29 fibroblasts; conditions: Fibroblast, 96 h, % αSMA positive LL29 cells, TGF-β1 20 ng/mL, 4 days
Experimental: Representative compounds were screened using primary human fibroblasts (derived from IPF patients) treated with TGF-β1 to determine their ability to inhibit the fibrotic process.
LL29 cells are plated at 1,500 cells/well in 80 μL/well F12 medium supplemented with 1% Fetal Bovine Serum. […] Wells treated with TGF-β1 and containing DMSO were used as controls. […] Following incubation for 4 days, SYTOX green nucleic acid stain (Life Technologies [Thermo Fisher Scientific]) was added to the wells at a final concentration of 1 μM and incubated at room temperature for 30 min.

Row | EC50 [1] | EC50 [2] | EC50 (IL-6 (THP-1 cells)) | EC50 (SW480 colon cancer cells) | SMILES | Emax [2] | EC50 [3] | inhibition at 10 µM (IL-6 (THP-1 cells)) | inhibition at 10 µM [1] | inhibition at 10 µM (SW480 colon cancer cells)
1 | 844 nM | 30 nM | 1050 nM | 666 nM | O=C(Nc1cncc(-c2cc3c(-c4cc5c(-c6ccc(F)cc6)nccc5[nH]4)n[nH]c3cn2)c1)C1CC1 [Compound 48, N-(5-(3-(4-(4-Fluorophenyl)-1H-pyrrolo[3,2-c]pyridin-2-yl)-1H-pyrazolo[3,4-c]pyridin-5-yl)pyridin-3-yl)cyclopropanecarboxamide] | 96% | 404 nM | – | – | –
2 | 291 nM | 10 nM | 468 nM | 1100 nM | Fc1ccc(-c2nccc3[nH]c(-c4n[nH]c5cnc(-c6cncc(CN7CCC(F)(F)C7)c6)cc45)cc23)cc1 [Compound 54, 5-(5-((3,3-Difluoropyrrolidin-1-yl)methyl)pyridin-3-yl)-3-(4-(4-fluorophenyl)-1H-pyrrolo[3,2-c]pyridin-2-yl)-1H-pyrazolo[3,4-c]pyridine] | 61% | 28 nM | – | – | –
3 | 224 nM | 10 nM | 119 nM | 940 nM | Nc1cncc(-c2cc3c(-c4cc5c(-c6ccccc6F)nccc5[nH]4)n[nH]c3cn2)c1 [Compound 59, 5-(3-(4-(2-Fluorophenyl)-1H-pyrrolo[3,2-c]pyridin-2-yl)-1H-pyrazolo[3,4-c]pyridin-5-yl)pyridin-3-amine] | 117% | 5400 nM | – | – | –
4 | 1980 nM | 10 nM | 2320 nM | 3160 nM | Fc1ccccc1-c1nccc2[nH]c(-c3n[nH]c4cnc(-c5cncc(CN6CCCC6)c5)cc34)cc12 [Compound 70, 3-(4-(2-Fluorophenyl)-1H-pyrrolo[3,2-c]pyridin-2-yl)-5-(5-(pyrrolidin-1-ylmethyl)pyridin-3-yl)-1H-pyrazolo[3,4-c]pyridine] | 69% | 1250 nM | – | – | –
5 | 1030 nM | 30 nM | 1090 nM | 1280 nM | CC(C)(C)CC(=O)Nc1cncc(-c2cc3c(-c4cc5c(-c6ccccc6F)nccc5[nH]4)n[nH]c3cn2)c1 [Compound 72, N-(5-(3-(4-(2-fluorophenyl)-1H-pyrrolo[3,2-c]pyridin-2-yl)-1H-pyrazolo[3,4-c]pyridin-5-yl)pyridin-3-yl)-3,3-dimethylbutanamide] | 54% | 932 nM | – | – | –
6 | 1250 nM | – | 2800 nM | 4280 nM | O=C(Nc1cncc(-c2cc3c(-c4cc5c(-c6ccccc6F)nccc5[nH]4)n[nH]c3cn2)c1)C1CCC1 [Compound 77, N-(5-(3-(4-(2-Fluorophenyl)-1H-pyrrolo[3,2-c]pyridin-2-yl)-1H-pyrazolo[3,4-c]pyridin-5-yl)pyridin-3-yl)cyclobutanecarboxamide] | 44% | 2820 nM | – | – | –
7 | 2140 nM | – | > 10000 nM | 1600 nM | Fc1ccccc1-c1nccc2[nH]c(-c3n[nH]c4cnc(-c5cncnc5)cc34)cc12 [Compound 83, 3-(4-(2-Fluorophenyl)-1H-pyrrolo[3,2-c]pyridin-2-yl)-5-(pyrimidin-5-yl)-1H-pyrazolo[3,4-c]pyridine] | 47% | 1040 nM | 27.3% | – | –
8 | > 10000 nM | – | > 10000 nM | > 10000 nM | CC(C)C(=O)Nc1cncc(-c2cc3c(-c4cc5c(-c6ccncc6)nccc5[nH]4)n[nH]c3cn2)c1 [Compound 121, N-(5-(3-(4-(Pyridin-4-yl)-1H-pyrrolo[3,2-c]pyridin-2-yl)-1H-pyrazolo[3,4-c]pyridin-5-yl)pyridin-3-yl)isobutyramide] | 32% | 9820 nM | 0% | 6.2% | 19.7%
9 | > 10000 nM | 900 nM | > 10000 nM | > 10000 nM | c1ccc(CNCc2cncc(-c3cc4c(-c5cc6c(-c7ccncc7)nccc6[nH]5)n[nH]c4cn3)c2)cc1 [Compound 136, N-Benzyl-1-(5-(3-(4-(pyridin-4-yl)-1H-pyrrolo[3,2-c]pyridin-2-yl)-1H-pyrazolo[3,4-c]pyridin-5-yl)pyridin-3-yl)methanamine] | 67% | 560 nM | 0% | 50.4% | 23%
10 | 2770 nM | 10 nM | 1020 nM | 2370 nM | CCNCc1cncc(-c2cc3c(-c4cc5c(N6CCCCC6)nccc5[nH]4)n[nH]c3cn2)c1 [Compound 174, N-((5-(3-(4-(Piperidin-1-yl)-1H-pyrrolo[3,2-c]pyridin-2-yl)-1H-pyrazolo[3,4-c]pyridin-5-yl)pyridin-3-yl)methyl)ethanamine] | 183% | 1200 nM | – | – | –
11 | 4070 nM | – | 3430 nM | 4890 nM | O=C(Nc1cncc(-c2cc3c(-c4cc5c(N6CCCCC6)nccc5[nH]4)n[nH]c3cn2)c1)C1CCC1 [Compound 189, N-(5-(3-(4-(Piperidin-1-yl)-1H-pyrrolo[3,2-c]pyridin-2-yl)-1H-pyrazolo[3,4-c]pyridin-5-yl)pyridin-3-yl)cyclobutanecarboxamide] | 42% | 1220 nM | – | – | –
12 | > 10000 nM | 30 nM | 743 nM | > 10000 nM | CCC(=O)Nc1cncc(-c2cc3c(-c4cc5c(N6CCN(C)CC6)nccc5[nH]4)n[nH]c3cn2)c1 [Compound 225, N-(5-(3-(4-(4-Methylpiperazin-1-yl)-1H-pyrrolo[3,2-c]pyridin-2-yl)-1H-pyrazolo[3,4-c]pyridin-5-yl)pyridin-3-yl)propionamide] | 70% | 5300 nM | – | 52.4% | 7.9%
13 | > 10000 nM | – | > 10000 nM | > 10000 nM | CN1CCN(c2nccc3[nH]c(-c4n[nH]c5cnc(-c6cncc(N)c6)cc45)cc23)CC1 [Compound 227, 5-(3-(4-(4-Methylpiperazin-1-yl)-1H-pyrrolo[3,2-c]pyridin-2-yl)-1H-pyrazolo[3,4-c]pyridin-5-yl)pyridin-3-amine] | 50% | 5410 nM | 39.5% | 46.2% | 20.5%
